These results are taken from patent publication US7166296B2, “Pharmaceutical formulations and ligands for use therein; mimetics for UEA-1” (Sarlan, Ltd., priority 2001, dated 2007).

In brackets after ≈: the same amount, converted by molar mass. Non-standard residues stand in square brackets, D forms with d. Residues, ends and D or L forms follow the SMILES beside them. *: point of attachment. Galloyl = O=C(c1cc(O)c(O)c(O)c1)*; Orn = NCCC[CH](N)C(=O)O; Dab = NCC[CH](N)C(=O)O; Dap = NC[C@H](N)C(=O)O

The test system of assay [1] is UEA-1 binding sites on Caco-2 cell membrane preparations. As to the kind of experiment: Single tier competition assay: inhibition of biotinylated UEA-1 binding, compound and biotinylated UEA-1 incubated together. Also on record: species or system human. The conditions noted are these: for IC 50 (ug/ml) 1st tier / IC50: Table 8, galloyl constructs; for IC50: read-out: IC 50 (uM) 1st tier (converted); for Avg % Inhibtion: Single Tier Assay, library MSI 26. In a few lines: (§1)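 Plates coated with Caco-2 membrane preparation (10 μg/ml, carbonate buffer pH 9.6) and BSA-blocked. Single tier: compound and biotinylated UEA-1 incubated together overnight. Two tier: compound incubated overnight with membranes first, biotinylated UEA-1 added next. Bound UEA-1 detected by streptavidin-HRP/OPD, OD490.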

The test system is the same in assay [2]. The assay can be described thus: Two tier competition assay: compound incubated alone with membranes, biotinylated UEA-1 added in next step. Also on record: species or system human. The conditions noted are these: for IC 50 (ug/ml) 2nd tier / IC50: Table 8, galloyl constructs; for IC50: read-out: IC 50 (uM) 2nd tier; for Avg % Inhibition: Two Tier Assay, library MSI 26. In a few lines:
as §1

As for `NC(=O)C(CCNC(=O)c1cc(O)c(O)c(O)c1)NC(=O)C(CCNC(=O)c1cc(O)c(O)c(O)c1)NC(=O)C(CCNC(=O)c1cc(O)c(O)c(O)c1)NC(=O)c1cc(O)c(O)c(O)c1` (stereo not drawn) [MSI 34 #18], in assay [1], the “IC 50 (ug/ml) 1st tier” value came to 3 µg/mL (≈ 3.24 µM) and the IC50 is 3 µM. Further, in assay [2], the “IC 50 (ug/ml) 2nd tier” value turned out to be 0.9 µg/mL (≈ 0.972 µM) and the IC50 was 1 µM.
The matching figures for `NC(=O)C(CCCNC(=O)c1cc(O)c(O)c(O)c1)NC(=O)C(CCCNC(=O)c1cc(O)c(O)c(O)c1)NC(=O)C(CCCNC(=O)c1cc(O)c(O)c(O)c1)NC(=O)c1cc(O)c(O)c(O)c1` (stereo not drawn) [MSI 34 #19]: 11 µg/mL (≈ 11.4 µM), 11 µM, 1 µg/mL (≈ 1.03 µM) and 1 µM.
The matching figures for `NC(=O)C(Cc1ccc(NC(=O)c2cc(O)c(O)c(O)c2)cc1)NC(=O)C(Cc1ccc(NC(=O)c2cc(O)c(O)c(O)c2)cc1)NC(=O)C(Cc1ccc(NC(=O)c2cc(O)c(O)c(O)c2)cc1)NC(=O)c1cc(O)c(O)c(O)c1` (stereo not drawn) [MSI 34 #20]: 2 µg/mL (≈ 1.8 µM), 2 µM, 6 µg/mL (≈ 5.4 µM) and 5 µM.
As to `CC(=O)N[C@@H](CNC(=O)c1cc(O)c(O)c(O)c1)C(=O)N[C@@H](CNC(=O)c1cc(O)c(O)c(O)c1)C(=O)N[C@@H](CNC(=O)c1cc(O)c(O)c(O)c1)C(=O)N[C@@H](CNC(=O)c1cc(O)c(O)c(O)c1)C(N)=O` [MSI 34 #21] (Ac-[Dap](Galloyl)[Dap](Galloyl)[Dap](Galloyl)[Dap](Galloyl)-NH2), in assay [1], the “IC 50 (ug/ml) 1st tier” value amounted to 2 µg/mL (≈ 1.98 µM) and the IC50 was 2 µM. Besides, in assay [2], the “IC 50 (ug/ml) 2nd tier” value worked out at 1 µg/mL (≈ 0.988 µM) and the IC50 was found to be 1 µM.
In the same order, the values of `CC(=O)NC(CCNC(=O)c1cc(O)c(O)c(O)c1)C(=O)NC(CCNC(=O)c1cc(O)c(O)c(O)c1)C(=O)NC(CCNC(=O)c1cc(O)c(O)c(O)c1)C(=O)NC(CCNC(=O)c1cc(O)c(O)c(O)c1)C(N)=O` (stereo not drawn) [MSI 34 #22] (Ac-[Dab](Galloyl)[Dab](Galloyl)[Dab](Galloyl)[Dab](Galloyl)-NH2; configuration not given here) are 3 µg/mL (≈ 2.81 µM), 3 µM, 1 µg/mL (≈ 0.936 µM) and 1 µM.
In the same order, the values of `CC(=O)NC(CCCNC(=O)c1cc(O)c(O)c(O)c1)C(=O)NC(CCCNC(=O)c1cc(O)c(O)c(O)c1)C(=O)NC(CCCNC(=O)c1cc(O)c(O)c(O)c1)C(=O)NC(CCCNC(=O)c1cc(O)c(O)c(O)c1)C(N)=O` (stereo not drawn) [MSI 34 #23] (Ac-[Orn](Galloyl)[Orn](Galloyl)[Orn](Galloyl)[Orn](Galloyl)-NH2; configuration not given here) are 6 µg/mL (≈ 5.34 µM), 5 µM, 1 µg/mL (≈ 0.89 µM) and 1 µM.
For `NC(=O)C(CNC(=O)C(CNC(=O)c1cc(O)c(O)c(O)c1)NC(=O)c1cc(O)c(O)c(O)c1)NC(=O)CCCCCNC(=O)C(CNC(=O)c1cc(O)c(O)c(O)c1)NC(=O)c1cc(O)c(O)c(O)c1` (stereo not drawn) [MSI 39 #4], in assay [1], the “IC 50 (ug/ml) 1st tier” value is 6 µg/mL (≈ 6.02 µM) and the IC50 was 5 µM. In addition, in assay [2], the “IC 50 (ug/ml) 2nd tier” value came to 0.8 µg/mL (≈ 0.802 µM) and the IC50 is 0.7 µM.
The matching figures for `CC(=O)N[C@H](CCCCNC(=O)c1cc(O)c(O)c(O)c1)C(=O)N[C@H](CCCCNC(=O)c1cc(O)c(O)c(O)c1)C(=O)N[C@H](CCCCNC(=O)c1cc(O)c(O)c(O)c1)C(=O)N[C@H](CCCCNC(=O)c1cc(O)c(O)c(O)c1)C(N)=O` [MSI 39 #12] (Ac-[dK](Galloyl)[dK](Galloyl)[dK](Galloyl)[dK](Galloyl)-NH2): 8 µg/mL (≈ 6.78 µM), 7 µM, 3 µg/mL (≈ 2.54 µM) and 2 µM.
Consider `COC(=O)c1cc(O)c(O)c(O)c1` [Methyl 3,5,4-trihydroxybenzoate, reference compound], for which the “Avg % Inhibtion” value is 1% in assay [1] (62.5 μg/ml) and 4.5% in assay [1] (250 μg/ml). Moreover, the “Avg % Inhibition” value in assay [2] (62.5 μg/ml) was −11%; in assay [2] (250 μg/ml), −8%.
